Measured values from the supplement of paper PMC8967900.

Key:
Test in all cases: selective drug sensitivity score (sDSS, relative to normal bone marrow) (sDSS (score)); higher = more potent and effective on the cell line relative to normal bone marrow cells
Details in all cases: 72 h
[1] = system: MHH-CALL-2
[2] = system: RCH-ACV
[3] = system: MHH-CALL-4
[4] = system: NALM-16
[5] = system: 380
[6] = system: ALL-PO
[7] = system: MOLT-4
[8] = system: KASUMI-2
[9] = system: MN-60
[10] = system: KOPN-8
[11] = system: NALL-1
[12] = system: KASUMI-10
[13] = system: DND-41
[14] = system: REH
[15] = system: HPB-ALL
[16] = system: HAL-01
[17] = system: MOLT-16
[18] = system: COG-LL-319h
[19] = system: SEM cells
[20] = system: SUP-B15
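Note: ALL cell lines in 384-well plates, five doses spanning 10,000-fold, each plate scaled between vehicle and 100 µmol/L benzalkonium chloride controls, sDSS an adapted area-under-curve metric.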

SMILES	selective drug sensitivity score [1]	selective drug sensitivity score [2]	selective drug sensitivity score [3]	selective drug sensitivity score [4]	selective drug sensitivity score [5]	selective drug sensitivity score [6]	selective drug sensitivity score [7]	selective drug sensitivity score [8]	selective drug sensitivity score [9]	selective drug sensitivity score [10]	selective drug sensitivity score [11]	selective drug sensitivity score [12]	selective drug sensitivity score [13]	selective drug sensitivity score [14]	selective drug sensitivity score [15]	selective drug sensitivity score [16]	selective drug sensitivity score [17]	selective drug sensitivity score [18]	selective drug sensitivity score [19]	selective drug sensitivity score [20]
O=C(O)CC[C@H]1CC[C@@](c2cc(F)ccc2F)(S(=O)(=O)c2ccc(Cl)cc2)CC1 [MK-0752] (top concentration 1000 nM)	3.8	0.3	0	0	4.6	0	0	0	0	0	8.6	0	0.4	0	0	3.5	0	0	0	0
CNC(=O)[C@@H](NC(=O)[C@H](CC(C)C)[C@H](O)C(=O)NO)C(C)(C)C [Marimastat] (top concentration 10000 nM)	9.42	2.02	0.92	4.22	-1.28	5.22	0.62	-0.98	1.02	7.22	4.12	0.22	0.12	-1.28	-1.08	-1.28	2.82	-1.28	-1.08	4.52
Clc1ccc(C(c2ccccc2Cl)C(Cl)Cl)cc1 (stereo not given) [Mitotane] (top concentration 10000 nM)	1.32	-0.08	0.12	-0.08	-0.08	-0.08	-0.08	-0.08	-0.08	4.32	-0.08	-0.08	-0.08	-0.08	5.12	0.62	-0.08	-0.08	-0.08	-0.08
CCS(=O)(=O)Nc1ccc(Oc2ccc(F)cc2F)c(-c2cn(C)c(=O)c3[nH]ccc23)c1 [Mivebresib] (top concentration 10000 nM)	14.8	18.1	12.5	0.5	-13	6.1	-3.5	-14.8	8.2	16.6	0.6	10.9	1.5	-1.8	1.9	1.1	13.1	7.7	16	7.8
CN1C(=O)N[C@H](Cc2c[nH]c3c(Cl)cccc23)C1=O [Necrostatin_2] (top concentration 10000 nM)	-0.08	-0.08	-0.08	-0.08	-0.08	-0.08	-0.08	-0.08	-0.08	-0.08	-0.08	-0.08	-0.08	-0.08	-0.08	-0.08	-0.08	-0.08	-0.08	-0.08
O=c1ncn2nc(Sc3ccc(F)cc3F)ccc2c1-c1c(Cl)cccc1Cl [Neflamapimod] (top concentration 10000 nM)	1.8	6.7	0	0	4.7	5	0	0	1	4	2.1	0	0.5	3.1	0.8	2.5	2.1	0	1.5	0.5
CC(O)c1cc(C(=O)N[C@@H](C)Cn2ccc(-c3ccc(C#N)c(Cl)c3)n2)n[nH]1 (stereo not given in full) [ODM-201] (top concentration 2500 nM)	0.02	1.12	-0.28	-0.28	-0.08	0.52	-0.18	-0.28	-0.28	0.02	-0.28	-0.28	2.12	0.02	0.12	1.42	1.82	10.6	-0.28	4.22
C=CC(=O)Nc1cccc(Oc2nc(Nc3ccc(N4CCN(C)CC4)cc3)nc3ccsc23)c1 [Olmutinib] (top concentration 1000 nM)	6.88	1.58	-0.02	-0.02	-0.02	-0.02	-0.02	-0.02	-0.02	-0.02	5.88	-0.02	-0.02	2.28	-0.02	5.78	-0.02	-0.02	-0.02	-0.02
C=CC(=O)Nc1cc(Nc2nccc(-c3cn(C)c4ccccc34)n2)c(OC)cc1N(C)CCN(C)C [Osimertinib] (top concentration 2500 nM)	3.18	-1.02	-1.12	-4.42	-3.82	-0.72	-3.12	-3.52	-3.02	-0.82	0.58	2.18	-0.82	0.88	-0.92	-0.42	-0.82	-4.12	0.58	-2.02
O=C(Nc1cc(Cl)cc2c1[nH]c1cnccc12)c1cccnc1 [PS-1145] (top concentration 25000 nM)	6.74	3.04	-0.46	-0.46	-0.46	-0.36	-0.46	-0.46	-0.46	-0.46	9.14	3.44	-0.46	1.94	-0.46	2.14	-0.16	-0.46	0.04	-0.46
CC(=O)O[C@H]1C(=O)[C@@]2(C)[C@H]([C@H](OC(=O)c3ccccc3)[C@]3(O)C[C@H](OC(=O)[C@H](O)[C@@H](NC(=O)c4ccccc4)c4ccccc4)C(C)=C1C3(C)C)[C@]1(OC(C)=O)CO[C@@H]1C[C@@H]2O [Paclitaxel] (top concentration 1000 nM)	17.3	21.8	7.24	14.1	19.9	17.8	19.3	18.3	-0.36	22.4	12.2	11.5	2.04	23.1	14.1	0.74	21.7	21.5	21.3	21.1
CCCCCCCCCCCCCCCCCCOP(=O)([O-])OC1CC[N+](C)(C)CC1 [Perifosine] (top concentration 2500 nM)	-0.26	2.34	-0.16	-0.36	-0.16	0.94	-0.36	8.74	-0.36	-0.26	-0.36	-0.36	-0.36	-0.36	3.64	-0.26	-0.36	-0.26	-0.36	1.04
CC[C@@H]1C(=O)OC[C@@H]1Cc1cncn1C [Pilocarpine] (top concentration 40000 nM)	4.44	-1.56	-1.56	-1.56	-1.56	-1.56	-1.26	-1.56	-1.56	-1.56	7.44	-1.56	4.34	-1.56	7.34	-1.56	1.94	-1.56	-1.56	-1.56
Nc1cccc2c1C(=O)N(C1CCC(=O)NC1=O)C2=O (stereo not given) [Pomalidomide] (top concentration 10000 nM)	-0.16	9.54	7.54	-0.26	-0.26	8.14	-0.26	-0.26	-0.26	-0.26	-0.06	0.24	4.24	2.74	1.44	-0.26	-0.26	-0.26	3.64	-0.26
Cc1nc(=O)c2cc(CN(C)c3ccc(C(=O)N[C@@H](CCC(=O)O)C(=O)O)s3)ccc2[nH]1 [Raltitrexed] (top concentration 1000 nM)	19.6	29.2	16.1	9.12	20.7	23	17.3	15.8	8.02	28.4	12.8	18.1	16.5	24.3	13.4	21.2	25.3	25.7	23.9	28
C=CC(=O)Nc1cccc(Nc2nc(Nc3ccc(N4CCN(C(C)=O)CC4)cc3OC)ncc2C(F)(F)F)c1 [Rociletinib] (top concentration 10000 nM)	1.94	2.54	2.14	4.04	-0.16	10.3	2.04	-2.46	-0.76	1.14	3.14	6.94	-0.56	0.84	1.74	0.14	2.04	0.24	6.34	1.44
CC(C)N(CCCNC(=O)Nc1ccc(C(C)(C)C)cc1)C[C@H]1O[C@@H](n2cc(Br)c3c(N)ncnc32)[C@H](O)[C@@H]1O [SGC0946] (top concentration 10000 nM)	2.18	-0.82	-1.12	-0.62	-1.12	1.58	0.08	-1.12	-0.72	-0.72	5.58	-0.12	-1.02	5.18	1.18	0.68	0.78	-1.12	-0.72	-0.62
CC[C@H](CO)Nc1nc(NCc2ccccc2)c2ncn(C(C)C)c2n1 [Seliciclib] (top concentration 10000 nM)	1.26	2.16	0.16	-1.04	-1.04	-1.04	-1.04	-1.04	-1.04	4.26	-0.74	0.86	9.26	-0.14	-0.64	-0.34	0.26	1.66	-0.04	3.26
